Experiments:
[1] = PAMPA permeability; details: 5 hours at RT; for Papp at 5 h, 20 μM: PAMPA
Excerpt: Parallel artificial membrane permeability (PAMPA) assay is a non-cell based assay designed to predict in vivo biological membrane permeability of drugs in early stage of drug discovery. […] The Corning Gentest Pre-coated PAMPA plate system was designed by 96-well insert system with a 0.45 μm PVDF (polyvinylidene fluoride) filter plate which has been pre-coated with structured tri-layers of phospholipids (lipid/oil/lipid) and a matched receiver microplate.
Donor solutions of test compounds (300 μL, 20 μM in PBS/MeOH 90:10) were added to each well of the donor plate. 200 μL of PBS/MeOH 90:10 was added to each well of the acceptor plate. The acceptor plate was coupled with the donor plate and incubated for 5 hours at room temperature (RT) without agitation. In each plate, compounds were tested in triplicate. At the end of the incubation, drug concentration in the initial donor solution, acceptor and the donor wells were determined using LC/MS/MS. A five (5) points standard curve from 0.1 to 1000 nM for each test compound were prepared. Analyte samples were diluted to within standard curve concentration with ACN/H2O 50:50 prior analysis.
All samples were analyzed by electrospray ionization (ESI) liquid chromatograph/mass spectrometry (LC/MS) system utilizing Sciex 5500 quadropule ion trap (Qtrap) mass spectrometry with Shidmazu Nexera X2 UHPLC. The LC-MS/MS instrument monitored each of the test compound in the study based of their respective mass-to-charge (m/z) transitions and MS parameters. Chromatographic separation was achieved on Phenomenex Luna C18 column (50×2.0 mm, 3 μm particle size) by using a gradient elution: mobile phase A contains 0.1% formic acid in water and mobile phase B contains 0.1% formic acid in acetonitrile; A/B (99:1) from 0 to 1 minutes; to A/B (1:99) from 1 to 4 minutes; A/B (1:99) from 4 to 8 minutes; to A/B (99:1) from 8 to 8.20 minutes; A/B (99:1) from 8.2 to 9 minutes. The flow rate was 0.4 mL/min and the column temperature was maintained at 35° C. and autosampler temperature at 4° C. For detection, the electrospray ionization operated in the positive mode using multiple reaction monitoring (MRM).
Data acquisition, and peak integrations were obtained by Analyst® Version 1.7.1 (Sciex) operating with Windows® (Microsoft). The standard curve regressions and sample concentrations were generated and calculated by Analyst®. Concentrations in the sample solutions were determined based on the measured peak area ratios from the response of the analyte to the internal standard with reference to the standard calibration curve. All sample calculations were calculated using a linear regression with 1/x^2 weighting (where x is the concentration of given calibration standard level).
Permeability of the test compounds was calculated using the following formula:
The permeability of compounds was evaluated with the parallel artificial membrane permeation assay (PAMPA) as an in vivo model of passive diffusion across a porous filter coated with a lipid/oil/lipid tri-layer artificial membrane. […] Donor solutions of test compounds (300 μL, 20 μM in PBS/MeOH 90:10) were added to each well of the donor plate. 200 μL of PBS/MeOH 90:10 was added to each well of the acceptor plate. The acceptor plate was coupled with the donor plate and incubated for 5 hours at room temperature (RT) without agitation. In each plate, compounds were tested in triplicate. At the end of the incubation, drug concentration in the initial donor solution, acceptor and the donor wells were determined using LC/MS/MS. Permeability of test compounds was calculated based on the formula described in the General Procedures above. The PAMPA permeability classification criteria are categorized into three (3) classes with a high (Pe≥1.5×10−6 cm/s), intermediate (5.5×10−8<Pe<1.5×10−6 cm/s), and low (Pe<5.5×10−8 cm/s) permeability.

[2] = system: C57BL/6 mice with DSS colitis; assay: DSS colitis in C57BL/6 mice; assay type: in vivo; details: 25 mg/kg PO daily; day twelve
Procedure: Dextran sodium sulfate (DSS) was added to the water 24 hrs after compound administration and weight was measured daily.
C57BL/6 mice (20-22 grams) were fed ad lib and assigned to 4 different groups (n=8/group). […] A control group received vehicle alone. After 24 hrs, mice were weighed and DSS was added to their drinking water. Mice were then treated with the test compounds and weighed daily and the DSS water was replenished every 72 hrs for 5 days, at which point, it was replaced by regular drinking water. Mice were sacrificed on day twelve and clinical scored was assessed. Intestinal tissue for and blood were also collected. Tissues were either flash frozen and kept in −80° C. for RNA and protein isolation or placed in 10% formalin solution for future histological analysis. Blood was spun at 5K rpm for 5 min and serum was collected and kept at −20° C. for multiplex cytokine analysis.
DSS colitis mouse model: C57BL/6 mice (20-22 grains) are fed ad lib and assigned to different groups (n=8/group). […] A control group receives vehicle alone. After 24 h, mice are weighed and DSS is added to their drinking water. Mice are then treated with the test compounds and weighed daily and the DSS water is replenished every 72 liars for 5 days, at which point, it is replaced by regular drinking water. Mice are sacrificed on day twelve and clinical scored was assessed. Intestinal tissue for and blood are also collected. Tissues are either flash frozen and kept in −80° C. for RNA and protein isolation or placed in 10% formalin solution for future histological analysis.

[3] = system: CaCo-2 intestinal epithelial cells; assay: Transepithelial resistance (TEER) of CaCo-2 cells exposed to TNFα and IFNγ; assay type: cell-based; details: CaCo-2; TNFα along with compounds
Procedure: The intestinal epithelial barrier plays a central role in the pathophysiology of multiple chronic inflammatory and autoimmune diseases. Intestinal epithelial cells provide a physical barrier that interacts with immune cells and protects internal cavities from mucosal bacterial and antigen intrusion. Intestinal inflammation during IBD is associated with disruption of this barrier and cytokines like TNFα play important roles.
At confluence TEER is measured and TNFα along with compounds are added as described above. Compound-induced TEER is determined after correction with measurement prior to treatment.

[4] = PAMPA permeability Classification, 20 μM donor
[5] = Permeability, Pe, 20 μM donor in PBS/MeOH 90:10

| Molecule | Permeability, Pe ([1]; 20 μM donor in PBS/MeOH 90:10) [×10⁻⁶ cm/s] | DSS Efficacy [2] | TEER [3] | Papp at 5 h, 20 μM [1, 4] [×10⁻⁶ cm/s] | Papp at 5 h, 20 μM [1, 5] [×10⁻⁶ cm/s] |
| --- | --- | --- | --- | --- | --- |
| 4-(4-((1-cyclopropylpiperidin-4-yl)amino)-6-methoxy-7-(3-(pyrrolidin-1-yl)propoxy)quinazolin-2-yl)thiomorpholine 1,1-dioxide [Compound 405, reference compound] | 0.101 |  |  |  |  |
| COc1cc2c(N[C@@H]3CCCOC3)nc(N3CCC(F)(F)CC3)nc2cc1OCCCN1CCCC1 [Compound 12, (R)-2-(4,4-difluoropiperidin-1-yl)-6-methoxy-7-(3-(pyrrolidin-1-yl)propoxy)-N-(tetrahydro-2H-pyran-3-yl)quinazolin-4-amine] |  | ++ | ++ |  |  |
| COc1cc2c(NC3CCCOC3)nc(N3CCC(F)(F)CC3)nc2cc1OCCCN1CCCC1 (centres unmarked) [Compound 14, 2-(4,4-difluoropiperidin-1-yl)-6-methoxy-7-(3-(pyrrolidin-1-yl)propoxy)-N-(tetrahydro-2H-pyran-3-yl)quinazolin-4-amine] |  | ++ | + |  |  |
| COc1cc2c(NC3CCCS(=O)(=O)C3)nc(N3CCC(F)(F)CC3)nc2cc1OCCCN1CCCC1 (centres unmarked) [Compound 15, 3-((2-(4,4-difluoropiperidin-1-yl)-6-methoxy-7-(3-(pyrrolidin-1-yl)propoxy)quinazolin-4-yl)amino)tetrahydro-2H-thiopyran 1,1-dioxide] |  | + | ++ |  |  |
| COc1cc2c(NCN3CCOCC3)nc(N3CCC(F)(F)CC3)nc2cc1OCCCN1CCCC1 [Compound 17, 2-(4,4-difluoropiperidin-1-yl)-6-methoxy-N-(morpholinomethyl)-7-(3-(pyrrolidin-1-yl)propoxy)quinazolin-4-amine] |  | + | + |  |  |
| COc1cc2c(NCCCOC(C)C)nc(N3CCC(F)(F)CC3)nc2cc1OCCCN1CCCC1 [Compound 21, 2-(4,4-difluoropiperidin-1-yl)-N-(3-isopropoxypropyl)-6-methoxy-7-(3-(pyrrolidin-1-yl)propoxy)quinazolin-4-amine] |  | + | − |  |  |
| COc1cc2c(N[C@]3(N(C)C)C[C@@H](C)O[C@@H](C)C3)nc(N3CCC(F)(F)CC3)nc2cc1OCCCN1CCCC1 [Compound 25, (2R,4r,6S)—N-(2-(4,4-difluoropiperidin-1-yl)-6-methoxy-7-(3-(pyrrolidin-1-yl)propoxy)quinazolin-4-yl)-N′,N′,2,6-tetramethyltetrahydro-4H-pyran-4,4-diamine] |  | + | + |  |  |
| COc1cc2c(Nc3ccccn3)nc(N3CCC(F)(F)CC3)nc2cc1OCCCN1CCCC1 [Compound 34, 2-(4,4-difluoropiperidin-1-yl)-6-methoxy-N-(pyridin-2-yl)-7-(3-(pyrrolidin-1-yl)propoxy)quinazolin-4-amine] |  | − | − |  |  |
| COc1cc2c(NCC#N)nc(N3CCC(F)(F)CC3)nc2cc1OCCCN1CCCC1 [Compound 49, 2-((2-(4,4-difluoropiperidin-1-yl)-6-methoxy-7-(3-(pyrrolidin-1-yl)propoxy)quinazolin-4-yl)amino)acetonitrile] |  | − | − |  |  |
| COc1cc2c(NCO)nc(N3CCC(F)(F)CC3)nc2cc1OCCCN1CCCC1 [Compound 61, ((2-(4,4-difluoropiperidin-1-yl)-6-methoxy-7-(3-(pyrrolidin-1-yl)propoxy)quinazolin-4-yl)amino)methanol] |  | + | + |  |  |
| COc1cc2c(NC3CCS(=O)(=O)CC3)nc(N3CCC3)nc2cc1OCCCN1CCCC1 [Compound 81, 4-((2-(azetidin-1-yl)-6-methoxy-7-(3-(pyrrolidin-1-yl)propoxy)quinazolin-4-yl)amino)tetrahydro-2H-thiopyran 1,1-dioxide] |  | ++ | + |  |  |
| COc1cc2c(NC3CCS(=O)(=O)CC3)nc(C3CC3)nc2cc1OCCCN1CCCC1 [Compound 99, 4-((2-cyclopropyl-6-methoxy-7-(3-(pyrrolidin-1-yl)propoxy)quinazolin-4-yl)amino)tetrahydro-2H-thiopyran 1,1-dioxide] |  | ++ | ++ |  |  |
| COc1cc2c(NC3CCS(=O)(=O)CC3)nc(SC(C)C)nc2cc1OCCCN1CCCC1 [Compound 105] |  | + | + |  |  |
| COc1cc2c(NC3CCCS(=O)(=O)C3)nc(N3CCC3)nc2cc1OCCCN(C)C (centres unmarked) [Compound 137] |  | + | + |  |  |
| COc1cc2c(NC3CCOCC3)nc(N3CCCCC3)nc2cc1OCCCN1CCCC1 [Compound 173, 6-methoxy-2-(piperidin-1-yl)-7-(3-(pyrrolidin-1-yl)propoxy)-N-(tetrahydro-2H-pyran-4-yl)quinazolin-4-amine] |  | ++ | ++ |  |  |
| COc1cc2c(NC3CCOCC3)nc(-c3ccc(C)o3)nc2cc1OCCCN1CCCC1 [Compound 180, 6-methoxy-2-(5-methylfuran-2-yl)-7-(3-(pyrrolidin-1-yl)propoxy)-N-(tetrahydro-2H-pyran-4-yl)quinazolin-4-amine] |  | ++ | ++ |  |  |
| COc1cc2c(NCN3CCNCC3)nc(-c3cnc(C)s3)nc2cc1OCCCN1CCCC1 [Compound 213] |  | + | + |  |  |
| COc1cc2c(NC3CCOCC3)nc(N3CCCC3)nc2cc1C#CCN1CCCC1 [Compound 250] |  | ++ | ++ |  |  |
| COc1cc2c(NC3CCS(=O)(=O)CC3)nc(N3CCCC3)nc2cc1C#CCN1CCCC1 [Compound 254] |  | + | + |  |  |
| COc1cc2c(NC3CCN(C(C)C)CC3)nc(N3CCCN(C)CC3)nc2cc1OCCCN1CCCCC1 [Compound 403, reference compound] |  |  |  | < 0.055 | 0.0096 |
| COc1cc2c(NC3CCN(C(C)C)CC3)nc(N3CCOCC3)nc2cc1OCCCN1CCCC1 [Compound 404, reference compound] |  |  |  | < 0.055 | 0.00624 |

Reference: patent US11485728B2, “Small molecules for the treatment of autoimmune diseases and cancer” (Athos Therapeutics, Inc., priority 2020, dated 2022)
